Experimental findings from patent publication US12018023B2 (NERVIANO MEDICAL SCIENCES S.R.L., priority 2018, dated 2024) are described below.

SMILES strings stand for the structures.

What all share (type): biochemical
The target of test [1] is T1, IDH1^R132H homodimer enzyme (Homo sapiens, UniProt O75874, R132H).
T1 construct: purchased not specified
The experiment in a line: NADPH depletion assay, IDH1 R132H. In a few lines: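 IDH1 R132H enzyme (8 nM as diluted) in Tris-HCl pH 7.6 with 10 mM MgCl2, 0.001% Triton X-100 and 4 mM β-mercaptoethanol is preincubated 15 min at RT with compound. Substrate mix (12 uM NADPH, 3.4 mM α-ketoglutarate) is added for 60 min; remaining NAD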

The target of the next test is T2, IDH1^R132C (Homo sapiens, UniProt O75874, R132C).
T2 construct: purchased not specified
Description: NADPH depletion assay, IDH1 R132C. In a few lines: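 Fluorescence readout (Ex544/Em590) of NADPH left after diaphorase/resazurin addition. Alpha-ketoglutarate 0.14 mM final, enzyme 2 nM final; compound preincubation 15 min, then 60 min reaction, both at room temperature, pH 7.6 Tris buffer.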

The next test addresses T3, IDH2^R172K (Homo sapiens, UniProt P48735, R172K).
T3 construct: purchased not specified
T3 sequence (P48735 40-452 R172K): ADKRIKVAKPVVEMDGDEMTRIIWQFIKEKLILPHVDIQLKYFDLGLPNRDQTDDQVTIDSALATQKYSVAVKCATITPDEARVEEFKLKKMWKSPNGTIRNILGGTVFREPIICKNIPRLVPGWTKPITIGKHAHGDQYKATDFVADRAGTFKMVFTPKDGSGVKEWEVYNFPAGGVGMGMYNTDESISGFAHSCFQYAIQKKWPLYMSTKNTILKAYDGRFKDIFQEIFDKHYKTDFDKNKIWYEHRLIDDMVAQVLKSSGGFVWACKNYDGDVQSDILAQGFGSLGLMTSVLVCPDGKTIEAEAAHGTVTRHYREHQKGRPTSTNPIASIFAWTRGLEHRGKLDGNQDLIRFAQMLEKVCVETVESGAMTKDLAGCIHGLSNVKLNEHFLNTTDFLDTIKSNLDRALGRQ
The experiment in a line: NADPH depletion assay, IDH2 R172K. The method, then: IDH mutated enzyme activity converting alpha-ketoglutarate to 2-hydroxyglutaric acid is measured using a NADPH depletion assay. In the assay the remaining cofactor is measured at the end of the reaction with the addition of a catalytic excess of diaphorase and resazurin, to generate a fluorescent signal in proportion to the amount of NADPH remaining. IDH1 WT enzyme as well as mutated isoforms IDH1^R132H, IDH1^R132C, and IDH^2R172K enzymes are commercially available proteins (see e.g. Sino Biological, Abcam, Active Motif or Creative BioMart).
IDH1^R132H homodimer enzyme are diluted to 8 nM, in 10 μL of Assay Buffer (150 mM NaCl, 50 mM Tris-HCl pH 7.6, 10 mM MgCl2, 0.001% Triton X-100, 4 mM β-mercaptoethanol); 0.2 uL of test compound, previously serially diluted 1 to 3, >10 experimental points from 1 mM in DMSO, is added and the mixture is incubated for 15 minutes at room temperature. The reaction is started with the addition of 10 μL of Substrate Mix (12 uM NADPH, 3.4 mM alpha-ketoglutarate in Assay Buffer) and the mixture is incubated for 60 minutes at room temperature. The reaction is terminated with the addition of 5 μl of Detection Buffer (100 μg/mL diaphorase, 30 μM resazurin, in IX Assay Buffer), and is incubated for 15 minute before reading on a ViewLux as platereader at Ex544/Em590.
Compounds are assayed for their activity against IDH2^R172K following the same assay as above with the following modifications: IDH2^R172K and alpha-ketoglutarate final concentrations in the Assay Buffer is 16 nM and 0.55 mM, respectively.

T1 sequence (O75874 whole entry R132H): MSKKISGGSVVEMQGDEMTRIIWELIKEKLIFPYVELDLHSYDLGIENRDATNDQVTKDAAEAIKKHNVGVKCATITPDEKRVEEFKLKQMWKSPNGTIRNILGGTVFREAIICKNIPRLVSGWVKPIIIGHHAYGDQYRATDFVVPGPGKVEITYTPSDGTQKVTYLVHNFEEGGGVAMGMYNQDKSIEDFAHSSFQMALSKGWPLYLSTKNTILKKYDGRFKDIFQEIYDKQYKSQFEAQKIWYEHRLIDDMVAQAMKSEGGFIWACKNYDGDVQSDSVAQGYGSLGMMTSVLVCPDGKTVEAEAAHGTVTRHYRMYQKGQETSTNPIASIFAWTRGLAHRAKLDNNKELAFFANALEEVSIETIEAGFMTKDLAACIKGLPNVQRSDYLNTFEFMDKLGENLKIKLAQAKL
T2 sequence (O75874 whole entry R132C): as the sequence (O75874 whole entry R132H) above, with H132C counted along it

Turning to `C[C@H](Nc1ncc2ccc(=O)n(CC(C)(C)C)c2n1)c1ccc(CN2CCC(F)(F)CC2)cc1F` [cpd 152, 2-{[(1S)-1-{4-[(4,4-difluoropiperidin-1-yl)methyl]-2-fluorophenyl}ethyl]amino}-8-(2,2-dimethylpropyl)pyrido [2,3-d]pyrimidin-7(8H)-one], the IC50 in test [1] is 158 nM; on IDH1^R132C, 65 nM; at IDH2^R172K, 5620 nM.
Turning to `CC(C)[C@H](C)n1c(=O)ccc2cnc(N[C@@H](C)c3ccc(-c4ccccc4C#N)cc3)nc21` [cpd 165, 4′-[(1S)-1-({8-[(2S)-3-methylbutan-2-yl]-7-oxo-7,8-dihydropyrido[2,3-d]pyrimidin-2-yl}amino)ethyl]biphenyl-2-carbonitrile], the values for the IC50 (in test [1]; against IDH1^R132C; at IDH2^R172K) were 157 nM, 85 nM and 5660 nM, respectively.
`CC(C)[C@H](C)n1c(=O)ccc2cnc(N[C@@H](C)c3ccc(Br)cc3)nc21` [cpd 163, 2-{[(1S)-1-(4-bromophenyl)ethyl]amino}-8-[(2S)-3-methylbutan-2-yl]pyrido[2,3-d]pyrimidin-7(8H)-one]: the results for the IC50 (in test [1]; against IDH1^R132C; against IDH2^R172K) were 163 nM, 87 nM and 6600 nM, respectively.
As for `C=CC(=O)N1CCN(Cc2ccc([C@H](C)Nc3ncc4ccc(=O)n([C@@H](C)CO)c4n3)cc2)CC1` [cpd 199, 2-{[(1S)-1-{4-[(4-acryloylpiperazin-1-yl)methyl]phenyl}ethyl]amino}-8-[(2S)-1-hydroxypropan-2-yl]pyrido[2,3-d]pyrimidin-7(8H)-one], the values for the IC50 (in test [1]; against IDH1^R132C; at IDH2^R172K) were 1400 nM, 1530 nM and 717 nM, respectively.
The matching figures for `CCn1c(=O)ccc2cnc(N[C@@H](C)C3CCCCC3)nc21` [cpd 12, 2-{[(1S)-1-cyclohexylethyl]amino}-8-ethylpyrido[2,3-d]pyrimidin-7(8H)-one]: 3480 nM, 1780 nM and 5020 nM.
Take `CC(Nc1ncc2ccc(=O)n(Cc3ccccc3)c2n1)c1ccc(CN2CCC(F)(F)CC2)cc1` (centres unmarked) [cpd 96, 8-benzyl-2-[(1-{4-[(4,4-difluoropiperidin-1-yl)methyl]phenyl}ethyl)amino]pyrido[2,3-d]pyrimidin-7(8H)-one]: the half-inhibitory concentration (IC50) in test [1] was 801 nM; against IDH1^R132C, 420 nM; against IDH2^R172K, 5020 nM.
With `Cc1nc(N[C@@H](C)c2ccc(Cl)cc2)nc2c1ccc(=O)n2CC(C)C` [cpd 32, 2-{[(1S)-1-(4-chlorophenyl)ethyl]amino}-4-methyl-8-(2-methylpropyl)pyrido[2,3-d]pyrimidin-7(8H)-one], the results for the half-inhibitory concentration (IC50) (in test [1]; at IDH1^R132C) were 3770 nM and 1150 nM, respectively.
As for `C[C@H](Nc1ncc2ccc(=O)n(CC(C)(C)C)c2n1)c1nc(-c2ccc(Cl)cc2)no1` [cpd 52, 2-({(1S)-1-[3-(4-chlorophenyl)-1,2,4-oxadiazol-5-yl]ethyl}amino)-8-(2,2-dimethylpropyl)pyrido[2,3-d]pyrimidin-7(8H)-one], the IC50 in test [1] came to 1760 nM; on IDH1^R132C it was 786 nM.
On to `CC(C)(C)Cn1c(=O)ccc2cnc(NC(C)(C)c3ccccc3)nc21` [cpd 41, 8-(2,2-dimethylpropyl)-2-[(2-phenylpropan-2-yl)amino]pyrido[2,3-d]pyrimidin-7(8H)-one], for which the figures for the IC50 (in test [1]; at IDH1^R132C) were 2460 nM and 1410 nM, respectively.
The corresponding values for `C[C@H](Nc1ncc2ccc(=O)n(CC3(C)COC3)c2n1)c1ccc2ccccc2c1` [cpd 45, 8-[(3-methyloxetan-3-yl)methyl]-2-{[(1S)-1-(naphthalen-2-yl)ethyl]amino}pyrido[2,3-d]pyrimidin-7(8H)-one] are 554 nM and 206 nM.
For `C[C@H](Nc1ncc2ccc(=O)n(CC(C)(C)CO)c2n1)c1ccc(Br)cc1` [cpd 35, 2-{[(1S)-1-(4-bromophenyl)ethyl]amino}-8-(3-hydroxy-2,2-dimethylpropyl)pyrido[2,3-d]pyrimidin-7(8H)-one], the values for the IC50 (in test [1]; at IDH2^R172K) were 211 nM and 5050 nM, respectively.
Turning to `C[C@H](Nc1ncc2ccc(=O)n(CC(C)(C)C)c2n1)c1ccccc1` [cpd 40, 8-(2,2-dimethylpropyl)-2-{[(1S)-1-phenylethyl]amino}pyrido[2,3-d]pyrimidin-7(8H)-one], the IC50 in test [1] was determined as 160 nM; against IDH1^R132C, 71 nM.
For the compound `CC(C)[C@H](C)n1c(=O)ccc2cnc(N[C@@H](C)c3ccc(N4CCN(C(=O)OCc5ccccc5)CC4)cc3)nc21` [cpd 174, Benzyl-4-{4-[(1S)-1-({8-[(2S)-3-methylbutan-2-yl]-7-oxo-7,8-dihydropyrido[2,3-d]pyrimidin-2-yl}amino)ethyl]phenyl}piperazine-1-carboxylate], the IC50 in test [1] came out at 42 nM; against IDH1^R132C it was 32 nM.
`CCN1CCN(c2ccc([C@H](C)Nc3ncc4ccc(=O)n([C@@H](C)C(C)C)c4n3)cc2)CC1` [cpd 177, 2-({(1S)-1-[4-(4-ethylpiperazin-1-yl)phenyl]ethyl}amino)-8-[(2S)-3-methylbutan-2-yl]pyrido[2,3-d]pyrimidin-7(8H)-one]: the IC50 in test [1] is 978 nM; at IDH1^R132C, 401 nM.
Take `C[C@H](Nc1ncc2cc(F)c(=O)n(CC(C)(C)C)c2n1)c1ccc(CN2CCCC(F)(F)C2)cc1` [cpd 57, 2-{(S)-1-[4-(3,3-Difluoro-piperidin-1-ylmethyl)-phenyl]-ethylamino}-8-(2,2-dimethyl-propyl)-6-fluoro-8H-pyrido [2,3-d]pyrimidin-7-one]: the IC50 in test [1] came to 543 nM; against IDH1^R132C, 208 nM.
With `CC(C)C(=O)N1CCN(Cc2ccc([C@H](C)Nc3ncc4ccc(=O)n(CC(C)(C)C)c4n3)cc2)CC1` [cpd 157, 8-(2,2-dimethylpropyl)-2-{[(1S)-1-(4-{[4-(2-methylpropanoyl)piperazin-1-yl]methyl}phenyl)ethyl]amino}-pyrido [2,3-d]pyrimidin-7(8H)-one], the IC50 stood at 162 nM in test [1] and 51 nM against IDH1^R132C.
The matching figures for `CC(Nc1ncc2ccc(=O)n(CCF)c2n1)c1ccc(CN2CCC(F)(F)CC2)cc1` (centres unmarked) [cpd 100, 2-[(1-{4-[(4,4-difluoropiperidin-1-yl)methyl]phenyl}ethyl)amino]-8-(2-fluoroethyl)pyrido[2,3-d]pyrimidin-7(8H)-one]: 3060 nM and 1590 nM.
With `C[C@H](Nc1ncc2ccc(=O)n(CC(C)(C)C)c2n1)c1ccc(C(=O)NC2CCCCC2)cc1` [cpd 81, N-cyclohexyl-4-[(1S)-1-{[8-(2,2-dimethylpropyl)-7-oxo-pyrido[2,3-d]pyrimidin-2-yl]amino}ethyl] benzamide], the IC50 in test [1] came to 288 nM; on IDH1^R132C, 172 nM.
On to `CC(C#N)n1c(=O)ccc2cnc(N[C@@H](C)c3ccc(CN4CCCC(F)(F)C4)cc3)nc21` (stereo partly drawn) [cpd 64, 2-[2-{[(1S)-1-{4-[(3,3-difluoropiperidin-1-yl)methyl]phenyl}ethyl]amino}-7-oxopyrido[2,3-d]pyrimidin-8(7H)-yl]propanenitrile], for which the IC50 in test [1] was 210 nM; at IDH1^R132C, 133 nM.
On to `C[C@H](Nc1ncc2ccc(=O)n(CC(C(F)(F)F)C(F)(F)F)c2n1)c1ccc(CN2CCC(F)(F)CC2)cc1` [cpd 108, 2-{[(1S)-1-{4-[(4,4-difluoropiperidin-1-yl)methyl]phenyl)ethyl]amino)-8-[3,3,3-trifluoro-2-(trifluoromethyl)propyl]pyrido[2,3-d]pyrimidin-7(8H)-one], for which the IC50 in test [1] amounted to 459 nM; against IDH1^R132C, 307 nM.
For `COC(=O)c1ccc([C@H](C)Nc2ncc3ccc(=O)n(CC(C)C)c3n2)cc1` [cpd 5, methyl 4-[(1S)-1-{[8-(2-methylpropyl)-7-oxo-pyrido[2,3-d]pyrimidin-2-yl]amino}ethyl]benzoate], the values for the IC50 (in test [1]; against IDH1^R132C) were 1130 nM and 450 nM, respectively.
The matching figures for `C[C@H](Nc1ncc2ccc(=O)n(CCF)c2n1)c1ccc(Cl)cc1` [cpd 17, 2-{[(1S)-1-(4-chlorophenyl)ethyl]amino}-8-(2-fluoroethyl)pyrido[2,3-d]pyrimidin-7(8H)-one]: 4910 nM and 1890 nM.

As usually defined, the IC50 is the concentration at which inhibition is half-maximal.
